The values below are quoted from earlier work in patent US10925890B2, “Use of dextran sulfate” (TX MEDIC AB, priority 2014, dated 2021).

The data set concerns angiogenesis. The conditions noted are these: cited from earlier work.

For the substance dextran sulfate, the Effect on angiogenesis result (U.S. Pat. No. 5,135,920) is recorded as “angiostatic”. Turning to heparin, where the note is “Glycobiology 3, 567-573 (1993), Pathophysiology of Haemostasis and Thrombosis 23, 141-149 (1993)”, the “Effect on angiogenesis in vivo” value is “inhibited angiogenesis”.
